Bridge positions count the residues as written; N and C are the ends. Square brackets hold non-standard residues; d marks the D form. Peptide text beside a SMILES is read from it. * marks the point of attachment. 5FAM = O=C1OC2(c3ccc(O)cc3Oc3cc(O)ccc32)c2ccc(C(=O)*)cc21; Cha = N[C@@H](CC1CCCCC1)C(=O)O
The molecules below were run against DDE (fibrin-derived polypeptide) (Homo sapiens, UniProt P02671+P02675+P02679) (assay: Direct binding fluorescence polarization (FP) assay using 5-carboxyfluorescein labeled peptides). Settings: 20 nM CF5-labeled peptide, serial dilutions of DDE, anisotropy read at 485 nm; read-out: KD (μM) Direct Binding (n = 2).
Experimental: Assay of Fibrin Binding Peptides by Direct Binding Fluorescence Polarization (FP) Procedure using 5-Carboxyfluoresein Labeled Peptides
Protocol • 1. Prepare 1 mL of 40 nM solution of 5-carboxyfluorescein-labeled peptide in HEPES dilution buffer (HDB) with 0.01% Tween. • HDB (10 mM HEPES, 150 mM […], 2 mM CaCl2) • 2. Dilute the 40 nM solution to obtain 1 ml of a 20 nM solution of the test 5-carboxyfluorescein-labeled peptide. • 3. Prepare a solution of DDE at a concentration that will be approximately 5-10 fold greater than the expected KD. For the described assay an 8 μM concentration of DDE was prepared. • 4. Mix equal volumes of the DDE solution with the 40 nM peptide solution. • 5. Prepare serial dilutions of DDE in a solution consisting of the binding buffer with 0.01% Tween20 and 20 nM of the 5-carboxyfluorescein-labeled peptide. • 6. Make dilutions as shown in the following table in a Labsystems 384-well microplate and mix by repeated aspiration and dispensing of the solution into the wells. • 7. Centrifuge the plate at 2000 RPM for 5 minutes to remove air pockets in the wells. • 8. Read in Tecan Polarion Plate Reader at 485 nm to obtain the anisotropy value.
The anisotropy (in mP—millipolarization units) vs the logarithm of the concentration (micromoles/liter) of the receptor concentration is graphed. The dissociation constant is obtained at the midpoint of the curve whose extrema are Afree and Abound where Afree is the anisotropy of the free peptide and Abound is the anisotropy of the fully bound peptide. The theory, methods of operation and mathematical analysis is described in, for example, the following reference: Fluorescence Polarization Technical Resource Guide Technical Resource Guide 4th Edn. Invitrogen Corporation•501 Charmany Drive•Madison, Wis. 53719 USA. Particularly, the mathematical analysis of the data and obtaining binding constants is described in Chapter 8: Analysis of FP Binding Data pp 8-2-8-7.

Sequence of DDE (fibrin-derived polypeptide) (P02671 124-216): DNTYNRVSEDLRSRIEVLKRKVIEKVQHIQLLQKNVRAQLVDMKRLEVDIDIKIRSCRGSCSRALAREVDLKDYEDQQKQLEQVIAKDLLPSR
Sequence of DDE (fibrin-derived polypeptide) (P02675 164-491): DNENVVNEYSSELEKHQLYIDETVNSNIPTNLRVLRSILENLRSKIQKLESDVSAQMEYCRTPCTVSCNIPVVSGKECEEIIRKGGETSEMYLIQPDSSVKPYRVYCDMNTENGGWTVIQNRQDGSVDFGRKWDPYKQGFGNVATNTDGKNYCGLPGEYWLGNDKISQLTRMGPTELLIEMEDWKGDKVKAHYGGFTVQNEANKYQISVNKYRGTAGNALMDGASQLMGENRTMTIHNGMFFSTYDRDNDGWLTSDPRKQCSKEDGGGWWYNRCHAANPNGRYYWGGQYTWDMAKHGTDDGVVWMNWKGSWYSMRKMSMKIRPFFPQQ
Sequence of DDE (fibrin-derived polypeptide) (P02679 114-432): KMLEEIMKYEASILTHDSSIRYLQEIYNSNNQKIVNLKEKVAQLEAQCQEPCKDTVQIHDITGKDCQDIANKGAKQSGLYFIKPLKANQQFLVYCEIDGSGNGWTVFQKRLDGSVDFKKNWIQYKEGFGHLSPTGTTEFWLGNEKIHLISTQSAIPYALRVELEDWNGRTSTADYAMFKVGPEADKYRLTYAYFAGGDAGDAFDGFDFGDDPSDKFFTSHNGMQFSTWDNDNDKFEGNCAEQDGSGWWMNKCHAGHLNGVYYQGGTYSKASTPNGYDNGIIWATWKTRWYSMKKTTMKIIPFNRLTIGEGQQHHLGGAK
Sequence of DDE (fibrin-derived polypeptide) (P02671 36-97): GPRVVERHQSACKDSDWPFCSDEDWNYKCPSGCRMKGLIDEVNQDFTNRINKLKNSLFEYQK
Sequence of DDE (fibrin-derived polypeptide) (P02675 45-152): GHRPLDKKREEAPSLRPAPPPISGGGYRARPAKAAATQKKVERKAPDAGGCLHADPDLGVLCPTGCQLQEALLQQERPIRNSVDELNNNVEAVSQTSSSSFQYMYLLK
Sequence of DDE (fibrin-derived polypeptide) (P02679 27-88): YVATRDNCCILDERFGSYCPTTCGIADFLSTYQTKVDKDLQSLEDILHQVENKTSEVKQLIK

| SMILES | Kd [µM] |
| --- | --- |
| CC(=O)N[C@@H](Cc1c[nH]c2ccccc12)C(=O)N[C@@H](CCC(N)=O)C(=O)N1CCC[C@H]1C(=O)N[C@H]1CSSC[C@@H](C(=O)N[C@@H](Cc2c[nH]c3ccccc23)C(=O)N[C@@H](CC(=O)O)C(=O)N2CCC[C@H]2C(=O)NCC(=O)NCC(=O)NCC(=O)N[C@@H](CCCCNC(=O)c2ccc3c(c2)C(=O)OC32c3ccc(O)cc3Oc3cc(O)ccc32)C(N)=O)NC(=O)[C@H](Cc2ccccc2)NC(=O)[C@H]([C@@H](C)O)NC(=O)[C@H](Cc2c[nH]c3ccccc23)NC(=O)[C@H](CO)NC(=O)[C@H](CCC(=O)O)NC(=O)[C@H](Cc2c[nH]c3ccccc23)NC(=O)[C@@H]2CCCN2C1=O [Seq000-CF5, reference compound] (Ac-WQPCPWESWTFCWDPGGGK(5FAM)-NH2; disulfide 4-12) | 0.39 |
| CC(=O)N[C@@H](CCCNC(=N)N)C(=O)N[C@@H](Cc1c[nH]c2ccccc12)C(=O)N[C@@H](CCC(N)=O)C(=O)N1CCC[C@H]1C(=O)N[C@H]1CSSC[C@@H](C(=O)N[C@@H](Cc2c[nH]c3ccccc23)C(=O)N[C@@H](CC(=O)O)C(=O)N2CCC[C@H]2C(=O)NCC(=O)NCC(=O)NCC(=O)N[C@@H](CCCCNC(=O)c2ccc3c(c2)C(=O)OC32c3ccc(O)cc3Oc3cc(O)ccc32)C(N)=O)NC(=O)[C@H](Cc2ccccc2)NC(=O)[C@H]([C@@H](C)O)NC(=O)[C@H](Cc2c[nH]c3ccccc23)NC(=O)[C@H](CO)NC(=O)[C@H](CCC(=O)O)NC(=O)[C@H](Cc2c[nH]c3ccccc23)NC(=O)[C@@H]2CCCN2C1=O [Seq048-CF5] (Ac-RWQPCPWESWTFCWDPGGGK(5FAM)-NH2; disulfide 5-13) | 0.11 |
| CC(=O)NCC(=O)N1CCC[C@H]1C(=O)N1CCC[C@H]1C(=O)NCC(=O)N[C@@H](Cc1c[nH]c2ccccc12)C(=O)N[C@@H](CCC(N)=O)C(=O)N1CCC[C@H]1C(=O)N[C@H]1CSSC[C@@H](C(=O)N[C@@H](Cc2c[nH]c3ccccc23)C(=O)N[C@@H](CC(=O)O)C(=O)N2CCC[C@H]2C(=O)NCC(=O)NCC(=O)NCC(=O)N[C@@H](CCCCNC(=O)c2ccc3c(c2)C(=O)OC32c3ccc(O)cc3Oc3cc(O)ccc32)C(N)=O)NC(=O)[C@H](Cc2ccccc2)NC(=O)[C@H]([C@@H](C)O)NC(=O)[C@H](Cc2c[nH]c3ccccc23)NC(=O)[C@H](CO)NC(=O)[C@H](CCC(=O)O)NC(=O)[C@H](C)NC(=O)[C@@H]2CCCN2C1=O [Seq034-CF5] (Ac-GPPGWQPCPAESWTFCWDPGGGK(5FAM)-NH2; disulfide 8-16) | 0.31 |

More lines, now with the values ahead:

| Kd [µM] | SMILES |
| --- | --- |
| 0.06 | C[C@@H]1NC(=O)[C@@H]2CCCN2C(=O)[C@@H](NC(=O)[C@@H]2CCCN2C(=O)[C@H](CCC(N)=O)NC(=O)[C@H](Cc2c[nH]c3ccccc23)NC(=O)[C@@H](N)CCCNC(=N)N)CSSC[C@@H](C(=O)N[C@@H](Cc2c[nH]c3ccccc23)C(=O)N[C@@H](CC(=O)O)C(=O)N2CCC[C@H]2C(=O)NCC(=O)NCC(=O)NCC(=O)N[C@@H](CCCCNC(=O)c2ccc3c(c2)C(=O)OC32c3ccc(O)cc3Oc3cc(O)ccc32)C(N)=O)NC(=O)[C@H](Cc2ccccc2)NC(=O)[C@H]([C@@H](C)O)NC(=O)[C@H](Cc2c[nH]c3ccccc23)NC(=O)[C@H](CO)NC(=O)[C@H](CCC(=O)O)NC1=O [Seq056-CF5] (H-RWQPCPAESWTFCWDPGGGK(5FAM)-NH2; disulfide 5-13) |
| 0.03 | C[C@@H]1NC(=O)[C@@H]2CCCN2C(=O)[C@@H](NC(=O)[C@@H]2CCCN2C(=O)[C@H](CCC(N)=O)NC(=O)[C@H](Cc2c[nH]c3ccccc23)NC(=O)[C@@H](N)CCCNC(=N)N)CSSC[C@@H](C(=O)N[C@@H](Cc2c[nH]c3ccccc23)C(=O)N[C@@H](CC(=O)O)C(=O)N2CCC[C@H]2C(=O)NCC(=O)NCC(=O)NCC(=O)N[C@@H](CCCCNC(=O)c2ccc3c(c2)C(=O)OC32c3ccc(O)cc3Oc3cc(O)ccc32)C(N)=O)NC(=O)[C@H](CC2CCCCC2)NC(=O)[C@H]([C@@H](C)O)NC(=O)[C@H](Cc2c[nH]c3ccccc23)NC(=O)[C@H](CO)NC(=O)[C@H](CCC(=O)O)NC1=O [Seq057-CF5, RWQPC*PAESWT-Cha-C*WDPGGGK(CF5)-NH2] (H-RWQPCPAESWT[Cha]CWDPGGGK(5FAM)-NH2; disulfide 5-13) |

— patent US8466107B2, “Fibrin-binding peptides and conjugates thereof” (Bracco Imaging SpA, priority 2006, dated 2013)
